The supplement of paper PMC10307832

Experiments:
Assay in all cases: relative viability (nuclei count vs DMSO), 5 days (fraction); higher = more cells survive
[1] = test system: 201T
Summary of the method: (§1)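 Dosing by pin tool came one day after lung cancer cell lines were seeded in 1536-well plates, using either one drug or a fixed anchor-drug dose plus five library-drug doses (not always all listed) in √10 steps. After 5 days, nuclei were counted on 4× images. Relative viability is treated-well nuclei count divided by vehicle-well nuclei count, and values are medians of duplicate plates.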

[2] = test system: SW 1573
Summary of the method: as §1

[3] = test system: NCI-H460
Summary of the method: as §1

[4] = test system: NCI-H727
Summary of the method: as §1

[5] = test system: NCI-H1793
Summary of the method: as §1

[6] = test system: HCC-44
Summary of the method: as §1

[7] = test system: NCI-H2228
Summary of the method: as §1

[8] = test system: LCLC-97TM1
Summary of the method: as §1

[9] = test system: PC-14
Summary of the method: as §1

[10] = test system: NCI-H23
Summary of the method: as §1

[11] = test system: COR-L23
Summary of the method: as §1

[12] = test system: H3255
Summary of the method: as §1

[13] = test system: NCI-H596
Summary of the method: as §1

[14] = test system: LCLC-103H
Summary of the method: as §1

[15] = test system: LK-2
Summary of the method: as §1

[16] = test system: NCI-H2347
Summary of the method: as §1

[17] = test system: LU99A
Summary of the method: as §1

[18] = test system: LC-2-ad
Summary of the method: as §1

[19] = test system: NCI-H1563
Summary of the method: as §1

[20] = test system: A-427
Summary of the method: as §1

Question: Which results are given for `CC(=O)O[C@@]12CO[C@@H]1C[C@H](O)[C@@]1(C)C(=O)[C@H](O)C3=C(C)[C@@H](OC(=O)[C@H](O)[C@@H](NC(=O)OC(C)(C)C)c4ccccc4)C[C@@](O)([C@@H](OC(=O)c4ccccc4)[C@H]21)C3(C)C` [Docetaxel] + Cc1nc(NC(=O)N2CCC[C@H]2C(N)=O)sc1-c1ccnc(C(C)(C)C(F)(F)F)c1 [Alpelisib] (partner 2 µM)?
Answer: relative viability ([1]; first compound 0.0002 µM): 1.01; relative viability ([1]; first compound 0.000632 µM): 1.06; relative viability ([1]; first compound 0.002 µM): 0.878; relative viability ([1]; first compound 0.006325 µM): 0.555; relative viability ([1]; first compound 0.02 µM): 0.366; relative viability ([2]; first compound 0.0002 µM): 0.739; relative viability ([2]; first compound 0.000632 µM): 0.604; relative viability ([2]; first compound 0.002 µM): 0.29; relative viability ([2]; first compound 0.006325 µM): 0.233; relative viability ([2]; first compound 0.02 µM): 0.185; relative viability ([3]; first compound 0.0002 µM): 0.303; relative viability ([3]; first compound 0.000632 µM): 0.185; relative viability ([3]; first compound 0.002 µM): 0.016; relative viability ([3]; first compound 0.006325 µM): 0.0118; relative viability ([3]; first compound 0.02 µM): 0.0069; relative viability ([4]; first compound 0.0002 µM): 0.583; relative viability ([4]; first compound 0.000632 µM): 0.639; relative viability ([4]; first compound 0.002 µM): 0.369; relative viability ([4]; first compound 0.006325 µM): 0.298; relative viability ([4]; first compound 0.02 µM): 0.23; relative viability ([5]; first compound 0.0002 µM): 0.796; relative viability ([5]; first compound 0.000632 µM): 0.642; relative viability ([5]; first compound 0.002 µM): 0.41; relative viability ([5]; first compound 0.006325 µM): 0.309; relative viability ([5]; first compound 0.02 µM): 0.222; relative viability ([6]; first compound 0.0002 µM): 0.758; relative viability ([6]; first compound 0.000632 µM): 0.711; relative viability ([6]; first compound 0.002 µM): 0.609; relative viability ([6]; first compound 0.006325 µM): 0.149; relative viability ([6]; first compound 0.02 µM): 0.0751; relative viability ([7]; first compound 0.0002 µM): 0.329; relative viability ([7]; first compound 0.000632 µM): 0.243; relative viability ([7]; first compound 0.002 µM): 0.232; relative viability ([7]; first compound 0.006325 µM): 0.151; relative viability ([7]; first compound 0.02 µM): 0.118; relative viability ([8]; first compound 0.000632 µM): 0.222; relative viability ([8]; first compound 0.002 µM): 0.121; relative viability ([8]; first compound 0.006325 µM): 0.154; relative viability ([8]; first compound 0.02 µM): 0.0979; relative viability ([9]; first compound 0.0002 µM): 0.895; relative viability ([9]; first compound 0.000632 µM): 0.998; relative viability ([9]; first compound 0.002 µM): 0.354; relative viability ([9]; first compound 0.006325 µM): 0.11; relative viability ([9]; first compound 0.02 µM): 0.0576; relative viability ([10]; first compound 0.0002 µM): 0.612; relative viability ([10]; first compound 0.000632 µM): 0.512; relative viability ([10]; first compound 0.002 µM): 0.406; relative viability ([10]; first compound 0.006325 µM): 0.209; relative viability ([10]; first compound 0.02 µM): 0.0958; relative viability ([11]; first compound 0.0002 µM): 0.65; relative viability ([11]; first compound 0.000632 µM): 0.718; relative viability ([11]; first compound 0.002 µM): 0.261; relative viability ([11]; first compound 0.006325 µM): 0.0995; relative viability ([11]; first compound 0.02 µM): 0.0707; relative viability ([12]; first compound 0.0002 µM): 0.572; relative viability ([12]; first compound 0.000632 µM): 0.722; relative viability ([12]; first compound 0.002 µM): 0.348; relative viability ([12]; first compound 0.006325 µM): 0.251; relative viability ([13]; first compound 0.0002 µM): 0.616; relative viability ([13]; first compound 0.000632 µM): 0.516; relative viability ([13]; first compound 0.002 µM): 0.553; relative viability ([13]; first compound 0.006325 µM): 0.457; relative viability ([13]; first compound 0.02 µM): 0.336; relative viability ([14]; first compound 0.0002 µM): 0.966; relative viability ([14]; first compound 0.000632 µM): 0.984; relative viability ([14]; first compound 0.002 µM): 0.963; relative viability ([14]; first compound 0.006325 µM): 0.563; relative viability ([14]; first compound 0.02 µM): 0.452; relative viability ([15]; first compound 0.0002 µM): 1.03; relative viability ([15]; first compound 0.000632 µM): 0.685; relative viability ([15]; first compound 0.002 µM): 0.262; relative viability ([15]; first compound 0.006325 µM): 0.244; relative viability ([15]; first compound 0.02 µM): 0.231; relative viability ([16]; first compound 0.0002 µM): 1.01; relative viability ([16]; first compound 0.000632 µM): 1.1; relative viability ([16]; first compound 0.002 µM): 0.666; relative viability ([16]; first compound 0.006325 µM): 0.525; relative viability ([16]; first compound 0.02 µM): 0.438; relative viability ([17]; first compound 0.0002 µM): 0.499; relative viability ([17]; first compound 0.000632 µM): 0.342; relative viability ([17]; first compound 0.002 µM): 0.299; relative viability ([17]; first compound 0.006325 µM): 0.184; relative viability ([17]; first compound 0.02 µM): 0.139; relative viability ([18]; first compound 0.0002 µM): 0.538; relative viability ([18]; first compound 0.000632 µM): 0.174; relative viability ([18]; first compound 0.002 µM): 0.166; relative viability ([18]; first compound 0.006325 µM): 0.11; relative viability ([18]; first compound 0.02 µM): 0.0967; relative viability ([19]; first compound 0.0002 µM): 0.879; relative viability ([19]; first compound 0.000632 µM): 0.926; relative viability ([19]; first compound 0.002 µM): 0.809; relative viability ([19]; first compound 0.006325 µM): 0.807; relative viability ([19]; first compound 0.02 µM): 0.55; relative viability ([20]; first compound 0.0002 µM): 1.02; relative viability ([20]; first compound 0.000632 µM): 1.14; relative viability ([20]; first compound 0.002 µM): 0.974; relative viability ([20]; first compound 0.006325 µM): 0.204; relative viability ([20]; first compound 0.02 µM): 0.164
